These results are taken from patent US20220249590A1, “EFFICACY OF GARLIC THERAPY IN CONTROLLING INFLAMMATORY CYTOKINES AND CARTILAGE DEGRADATION IN KNEE OSTEOARTHRITIS AND IMPROVING QUALITY OF LIFE” (priority 2021, published 2022).

Structures are written as SMILES.

One assay relates to mice knee osteoarthritis. The settings on record: after intake of diet rich in selenium; cited from earlier work.
The subject of assay [1] is glutathione peroxidase. To be noted: mice, after intake of diet rich in selenium; cited from earlier work.
The next assay has as its system adjuvant arthritis. To be noted: adjuvant arthritis in rats; cited from earlier work.
Another assay has as its system lupus mice. The settings on record: cited from earlier work.
The test system of assay [2] is rheumatoid arthritis patients. To be noted: selenium intake; cited from earlier work.
For assay [3], the system named is knee osteoarthritis patients. In words: Study II: garlic versus glucosamine sulphate, clinical manifestations. It counts as in vivo, human. The procedure: In the second study, I had compared the effect of garlic versus glucosamine on cartilage degeneration in knee osteoarthritis patients. I have chosen glucosamine sulfate to be the comparing drug due to its well known chondroprotective properties and it has been in the market for a while to control the symptoms of knee osteoarthritis.
(§1) Garlic group receive 900 mg of garlic capsules daily for 8 weeks. The glucosamine group received 1500 mg glucosamine sulfate daily for 8 weeks. As regard baseline affection of knee in both groups. The garlic group has bilateral knee OA in 100% of patients and significant knee deformity compared to glucosamine group who were having only Bilateral knee affection in 70% of patients.

A further assay relates to MMP13. Description: Study II: level of MMP13. It counts as in vivo, human. To be noted: garlic capsules 900 mg daily or glucosamine sulfate 1500 mg daily, 8 weeks; no difference between the groups. The procedure:
as §1

In a further assay the test system is collagenase. In words: Study II: level of collagenase. It is filed as in vivo, human. To be noted: garlic capsules 900 mg daily or glucosamine sulfate 1500 mg daily, 8 weeks; no difference between the groups. How it is done: as §1
The subject of assay [4] is glutathione peroxidase. Description: Study II: level of glutathione peroxidase. It is filed as in vivo, human. The settings on record: garlic capsules 900 mg daily or glucosamine sulfate 1500 mg daily, 8 weeks; no difference between the groups. The procedure: as §1

On to `[Se]` [selenium], for which the mice knee osteoarthritis entry in the assay on mice knee osteoarthritis was “significant reduction”. In the assay on glutathione peroxidase [1], the “expression of glutathione peroxidase in synovium” value was “increased expression”. Moreover, the indices of inflammation entry in the assay on adjuvant arthritis and with lupus mice was “improved indices of inflammation” throughout. Besides, the “pain, swollen and tender joints numbers” value in [2] is listed as “reduction”.

Consider `N[C@H]1C(O)O[C@H](CO)[C@@H](O)[C@@H]1O.O=S(=O)(O)O` (some centres unmarked) [glucosamine sulfate], for which the “body mass index, mean percent change” value in [3] (end of study, glucosamine group vs garlic group) was “higher mean percent change than garlic group”. In assay [3] (garlic capsules 900 mg daily or glucosamine sulfate 1500 mg daily, 8 weeks), the pain score entry was “significantly improved in both groups with no difference between groups”. Moreover, the body mass index entry in assay [3] (garlic capsules 900 mg daily or glucosamine sulfate 1500 mg daily, 8 weeks, end of study vs baseline) is on record as “did not significantly change”. In the assay with MMP13, the “level of MMP13” value is listed as “significant reduction”. The level of collagenase entry in the assay with collagenase is “significant reduction”. The “level of glutathione peroxidase” value in the assay on glutathione peroxidase [4] was “significant reduction”.
